Patent publication US6472391B2, “Nitrogen-containing heterocyclic compounds” (Millennium Pharmaceuticals, Inc., priority 1996, dated 2002)

| SMILES | melting point [°C] |
| --- | --- |
| COc1cc2ncnc(N3CCN(C(=S)Nc4ccc([N+](=O)[O-])cc4)CC3)c2cc1OC [Compound 80, 4-(6,7-Dimethoxy-4-quinazolinyl)-N-(4-nitrophenyl)-1-piperazinethiocarboxamide] | 221 to 224 |
| COc1cc2ncnc(N3CCN(C(=O)Nc4ccc(F)c([N+](=O)[O-])c4)CC3)c2cc1OC [Compound 81, 4-(6,7-Dimethoxy-4-quinazolinyl)-N-(4-fluoro-3-nitrophenyl)-1-piperazinecarboxamide] | 243 to 245 |
| COc1cc2ncnc(N3CCN(C(=O)Nc4ccc([N+](=O)[O-])cc4Cl)CC3)c2cc1OC [Compound 82, N-(2-Chloro-4-nitrophenyl)-4-(6,7-dimethoxy-4-quinazolinyl)-1-piperazinecarboxamide] | 194 to 195 |
| COc1cc2ncnc(N3CCN(C(=O)Nc4ccc(Cl)c([N+](=O)[O-])c4)CC3)c2cc1OC [Compound 83, N-(4-Chloro-3-nitrophenyl)-4-(6,7-dimethoxy-4-quinazolinyl)-1-piperazinecarboxamide] | 253 to 255 |
| COc1cc2ncnc(N3CCN(C(=O)Nc4cccc(C#N)c4)CC3)c2cc1OC [Compound 84, N-(3-Cyanophenyl)-4-(6,7-dimethoxy-4-quinazolinyl)-1-piperazinecarboxamide] | 240 to 244 |
| COc1cc2ncnc(N3CCN(C(=S)Nc4ccc(C#N)cc4)CC3)c2cc1OC [Compound 85, N-(4-Cyanophenyl)-4-(6,7-dimethoxy-4-quinazolinyl)-1-piperazinethiocarboxamide] | 247 to 252 |
| COc1cc2ncnc(N3CCN(C(=O)Nc4cccc(C(C)=O)c4)CC3)c2cc1OC [Compound 86, N-(3-Acetylphenyl)-4-(6,7-dimethoxy-4-quinazolinyl)-1-piperazinecarboxamide] | 241 to 245 |
| COc1cc2ncnc(N3CCN(C(=O)Nc4ccc(C(C)=O)cc4)CC3)c2cc1OC [Compound 87, N-(4-acetylphenyl)-4-(6,7-dimethoxy-4-quinazolinyl)-1-piperazinecarboxamide] | 220 to 222 |
| COc1cc2ncnc(N3CCN(C(=S)Nc4ccc(C(=O)c5ccccc5)cc4)CC3)c2cc1OC [Compound 88, N-(4-Benzoylphenyl)-4-(6,7-dimethoxy-4-quinazolinyl)-1-piperazinethiocarboxamide] | 222 to 223 |
| CCOC(=O)c1ccc(NC(=O)N2CCN(c3ncnc4cc(OC)c(OC)cc34)CC2)cc1 [Compound 89, 4-(6,7-dimethoxy-4-quinazolinyl)-N-(4-ethoxycarbonylphenyl)-1-piperazinecarboxamide] | 242 to 246 |
| CCCCOC(=O)c1ccc(NC(=O)N2CCN(c3ncnc4cc(OC)c(OC)cc34)CC2)cc1 [Compound 90, N-(4-Butoxycarbonylphenyl)-4-(6,7-dimethoxy-4-quinazolinyl)-1-piperazinecarboxamide] | 226 to 227 |
| COC(=O)c1cc(NC(=O)N2CCN(c3ncnc4cc(OC)c(OC)cc34)CC2)cc(C(=O)OC)c1 [Compound 91, N-[3,5-Bis(methoxycarbonyl)phenyl]-4-(6,7-dimethoxy-4-quinazolinyl)-1-piperazinecarboxamide] | 252 to 253 |
| COc1cc2ncnc(N3CCN(C(=S)Nc4ccc(S(N)(=O)=O)cc4)CC3)c2cc1OC [Compound 93, 4-(6,7-Dimethoxy-4-quinazolinyl)-N-(4-sulfamoylphenyl)-1-piperazinethiocarboxamide] | 172 to 180 |
| COc1cc2ncnc(N3CCN(C(=S)NCc4ccco4)CC3)c2cc1OC [Compound 94, 4-(6,7-Dimethoxy-4-quinazolinyl)-N-furfuryl-1-piperazinethiocarboxamide] | 189 to 190 |
| COc1cc2ncnc(N3CCN(C(=S)NC(=O)c4ccco4)CC3)c2cc1OC [Compound 95, 4-(6,7-Dimethoxy-4-quinazolinyl)-N-(2-furoyl)-1-piperazinethiocarboxamide] | 187 to 189 |
